Inhibition data for 15 compounds are collected here from patent EP4667466A1, “PROTAC DEGRADERS OF MLLT1 AND/OR MLLT3” (priority 2024, dated 2025).

The target of this experiment is T1, MLLT1 (Homo sapiens, UniProt Q03111).
T1 construct: endogenous in cells; host or cells: MV4-11 (ATCC CRL-9591)
T1 sequence (Q03111 1-559): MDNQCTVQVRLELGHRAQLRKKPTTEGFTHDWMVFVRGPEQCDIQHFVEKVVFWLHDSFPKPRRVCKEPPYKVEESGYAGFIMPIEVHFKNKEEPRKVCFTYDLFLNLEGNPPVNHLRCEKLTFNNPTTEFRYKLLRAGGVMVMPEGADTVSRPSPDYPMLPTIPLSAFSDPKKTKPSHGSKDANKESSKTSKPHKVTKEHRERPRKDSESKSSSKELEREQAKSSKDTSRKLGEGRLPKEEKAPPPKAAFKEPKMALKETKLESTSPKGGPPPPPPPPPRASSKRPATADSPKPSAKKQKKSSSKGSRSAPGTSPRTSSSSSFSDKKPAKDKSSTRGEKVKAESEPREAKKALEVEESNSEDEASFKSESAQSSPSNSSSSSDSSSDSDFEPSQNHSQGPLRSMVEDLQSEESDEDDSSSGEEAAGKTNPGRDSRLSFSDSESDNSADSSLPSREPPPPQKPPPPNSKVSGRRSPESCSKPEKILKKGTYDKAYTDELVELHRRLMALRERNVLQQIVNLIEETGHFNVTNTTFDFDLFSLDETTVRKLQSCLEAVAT
Description: MLLT1 degradation assay (JESS automated chemiluminescent detection) in MV4-11 cells. In kind it is cell-based. Particulars: 24h, with respect to DMSO control. The essentials:
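MV4-11 cells were treated with 1000, 100 or 10 nM compound (0.1% DMSO) for 24 h at 37 °C. Lysates (4 µg protein) were probed for MLLT1 and GAPDH by JESS capillary chemiluminescence. Degradation was calculated from band peak areas versus DMSO control and binned into categories A–D.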

A word on the inhibition: it is the drop in the measured response relative to a control, in per cent. Low values mean a weak effect, high ones a strong effect.

Consider `Cc1nn(CCCCCCC2CCN(c3cccc(C(=O)N[C@H]4CCC(=O)NC4=O)n3)CC2)c2cc(C(=O)Nc3cc4[nH]c([C@H]5CCCN5C)cc4cn3)ccc12` [Example 73, 1-(6-(1-(6-(((S)-2,6-dioxopiperidin-3-yl)carbamoyl)pyridin-2-yl)piperidin-4-yl)hexyl)-3-methyl-N-(2-((R)-1-methylpyrrolidin-2-yl)-1H-pyrrolo[3,2-c]pyridin-6-yl)-1H-indazole-6-carboxamide], for which the inhibition at 0.01 µM lay within 50 to 75%, the inhibition at 0.1 µM was ≥ 75% and the inhibition at 1 µM was ≥ 75%.
`Cc1nn(CCCCCCCC#Cc2cccc(C3CCC(=O)NC3=O)n2)c2cc(C(=O)Nc3cc4[nH]c([C@H]5CCCN5C)cc4cn3)ccc12` (stereo partly drawn) [Example 62, 1-(9-(6-(2,6-dioxopiperidin-3-yl)pyridin-2-yl)non-8-yn-1-yl)-3-methyl-N-(2-((R)-1-methylpyrrolidin-2-yl)-1H-pyrrolo [3,2-c]pyridin-6-yl)-1H indazole-6-carboxamide]: the inhibition at 0.01 µM lay within 50 to 75%, the inhibition at 0.1 µM is 50 to 75% and the inhibition at 1 µM was ≥ 75%.
`CN1CCC[C@@H]1c1cc2cnc(NC(=O)c3ccc4c(C5CC5)nn(CCCCCCCC#Cc5cccc6c5CN(C5CCC(=O)NC5=O)C6=O)c4c3)cc2[nH]1` (stereo partly drawn) [Example 59, 3-cyclopropyl-1-(9-(2-(2,6-dioxopiperidin-3-yl)-1-oxoisoindolin-4-yl)non-8-yn-1-yl)-N-(2-((R)-1-methylpyrrolidin-2-yl)-1H-pyrrolo [3,2-c]pyridin-6-yl)-1H-indazole-6-carboxamide]: the inhibition at 0.01 µM was ≥ 75%, the inhibition at 0.1 µM is ≥ 75% and the inhibition at 1 µM was ≥ 75%.
Regarding `Cc1nn(CCCCCC2CCN(c3cccc4c3C(=O)N(C3CCC(=O)NC3=O)C4=O)CC2)c2cc(C(=O)Nc3cc4[nH]c([C@H]5CCCN5C)cc4cn3)ccc12` (stereo partly drawn) [Example 29, 1-(5-(1-(2-(2,6-dioxopiperidin-3-yl)-1,3-dioxoisoindolin-4-yl)piperidin-4-yl)pentyl)-3-methyl-N-(2-((R)-1-methylpyrrolidin-2-yl)-1H-pyrrolo[3,2-c]pyridin-6-yl)-1H-indazole-6-carboxamide], the inhibition at 0.01 µM was 50 to 75%, the inhibition at 0.1 µM is ≥ 75% and the inhibition at 1 µM was ≥ 75%.
`Cc1nn(CCOCCN2CCN(c3cc4c(cc3F)C(=O)N(C3CCC(=O)NC3=O)C4=O)CC2)c2cc(C(=O)Nc3cc4[nH]c([C@H]5CCCN5C)cc4cn3)ccc12` (stereo partly drawn) [Example 24, 1-(2-(2-(4-(2-(2,6-dioxopiperidin-3-yl)-6-fluoro-1,3-dioxoisoindolin-5-yl)piperazin-1-yl)ethoxy)ethyl)-3-methyl-N-(2-((R)-1-methylpyrrolidin-2-yl)-1H-pyrrolo[3,2-c]pyridin-6-yl)-1H-indazole-6-carboxamide]: the inhibition at 0.1 µM was in the range of 50 to 75% and the inhibition at 1 µM was ≥ 75%.
Regarding `Cc1nn(CCCCCCCCC#Cc2cccc3c2CN(C2CCC(=O)NC2=O)C3=O)c2cc(C(=O)Nc3cc4[nH]c([C@H]5CCCN5C)cc4cn3)ccc12` (stereo partly drawn) [Example 54, 1-(10-(2-(2,6-dioxopiperidin-3-yl)-1-oxoisoindolin-4-yl)dec-9-yn-1-yl)-3-methyl-N-(2-((R)-1-methylpyrrolidin-2-yl)-1H-pyrrolo[3,2-c]pyridin-6-yl)-1H-indazole-6-carboxamide], the inhibition at 0.01 µM is ≥ 75%, the inhibition at 0.1 µM is ≥ 75% and the inhibition at 1 µM is ≥ 75%.
Consider `Cc1nn(CCCCCCCCNc2cccc3c2C(=O)N(C2CCC(=O)NC2=O)C3=O)c2cc(C(=O)Nc3cc4[nH]c([C@H]5CCCN5C)cc4cn3)ccc12` (stereo partly drawn) [Example 3, 1-(8-{[2-(2,6-dioxopiperidin-3-yl)-1,3-dioxoisoindol-4-yl]amino}octyl)-3-methyl-N-{2-[(2R)-1-methylpyrrolidin-2-yl]-1H-pyrrolo[3,2-c]pyridin-6-yl}indazole-6-carboxamide], for which the inhibition at 0.01 µM fell in the range of 50 to 75%, the inhibition at 0.1 µM is ≥ 75% and the inhibition at 1 µM was ≥ 75%.
Take `Cc1c(OCCCCCCCCn2nc(C)c3ccc(C(=O)Nc4cc5[nH]c([C@H]6CCCN6C)cc5cn4)cc32)cccc1N1CCC(=O)NC1=O` [Example 9, 1-{8-[3-(2,4-dioxo-1,3-diazinan-1-yl)-2-methylphenoxy]octyl}-3-methyl-N-{2-[(2R)-1-methylpyrrolidin-2-yl]-1H-pyrrolo[3,2-c]pyridin-6-yl}indazole-6-carboxamide]: the inhibition at 0.01 µM is < 25%, the inhibition at 0.1 µM fell in the range of 25 to 50% and the inhibition at 1 µM is ≥ 75%.
On to `Cc1nn(C2CCN(CC3CCN(c4ccc5c(c4)C(=O)N(C4CCC(=O)NC4=O)C5=O)CC3)CC2)c2cc(C(=O)Nc3cc4[nH]c([C@H]5CCCN5C)cc4cn3)ccc12` (stereo partly drawn) [Example 70, 1-(1-((1-(2-(2,6-dioxopiperidin-3-yl)-1,3-dioxoisoindolin-5-yl)piperidin-4-yl)methyl)piperidin-4-yl)-3-methyl-N-(2-((R)-1-methylpyrrolidin-2-yl)-1H-pyrrolo[3,2-c]pyridin-6-yl)-1H-indazole-6-carboxamide], for which the inhibition at 0.01 µM was ≥ 75%, the inhibition at 0.1 µM is ≥ 75% and the inhibition at 1 µM is ≥ 75%.
`Cc1nn(CCCCCN2CCN(c3cc4c(cc3F)C(=O)N(C3CCC(=O)NC3=O)C4=O)CC2)c2cc(C(=O)Nc3cc4[nH]c([C@H]5CCCN5C)cc4cn3)ccc12` (stereo partly drawn) [Example 23, 1-(5-(4-(2-(2,6-dioxopiperidin-3-yl)-6-fluoro-1,3-dioxoisoindolin-5-yl)piperazin-1-yl)pentyl)-3-methyl-N-(2-((R)-1-methylpyrrolidin-2-yl)-1H-pyrrolo[3,2-c]pyridin-6-yl)-1H-indazole-6-carboxamide]: the inhibition at 0.01 µM is ≥ 75%, the inhibition at 0.1 µM is ≥ 75% and the inhibition at 1 µM is ≥ 75%.
Turning to `CCN1CCC[C@@H]1c1cc2cnc(NC(=O)c3ccc4c(C)nn(CCCCCCCC#Cc5cccc6c5CN(C5CCC(=O)NC5=O)C6=O)c4c3)cc2[nH]1` (stereo partly drawn) [Example 48, 1-(9-(2-(2,6-dioxopiperidin-3-yl)-1-oxoisoindolin-4-yl)non-8-yn-1-yl)-N-(2-((R)-1-ethylpyrrolidin-2-yl)-1H-pyrrolo[3,2-c]pyridin-6-yl)-3-methyl-1H-indazole-6-carboxamide], the inhibition at 0.01 µM fell in the range of 25 to 50%, the inhibition at 0.1 µM was 50 to 75% and the inhibition at 1 µM was ≥ 75%.
For the compound `CN1CCC[C@@H]1c1cc2cnc(NC(=O)c3ccc4c(cnn4CCCCCCCCNc4cccc5c4C(=O)N(C4CCC(=O)NC4=O)C5=O)c3)cc2[nH]1` (stereo partly drawn) [Example 36, 1-(8-((2-(2,6-dioxopiperidin-3-yl)-1,3-dioxoisoindolin-4-yl)amino)octyl)-N-(2-((R)-1-methylpyrrolidin-2-yl)-1H-pyrrolo[3,2-c]pyridin-6-yl)-1H-indazole-5-carboxamide], the inhibition at 0.01 µM is ≥ 75%, the inhibition at 0.1 µM is ≥ 75% and the inhibition at 1 µM was ≥ 75%.
With `Cc1nn(CCCCCC#Cc2cccc3c2n(C)c(=O)n3C2CCC(=O)NC2=O)c2cc(C(=O)Nc3cc4[nH]c([C@H]5CCCN5C)cc4cn3)ccc12` (stereo partly drawn) [Example 11, 1-{7-[1-(2,6-dioxopiperidin-3-yl)-3-methyl-2-oxo-1,3-benzodiazol-4-yl]hept-6-yn-1-yl}-3-methyl-N-{2-[(2R)-1-methylpyrrolidin-2-yl]-1H-pyrrolo[3,2-c]pyridin-6-yl}indazole-6-carboxamide], the inhibition at 0.01 µM lay within 50 to 75%, the inhibition at 0.1 µM was in the range of 50 to 75% and the inhibition at 1 µM was in the range of 50 to 75%.
With `Cc1nn(CCCCCCCCNc2cccc3c2C(=O)N(C2CCC(=O)NC2=O)C3=O)c2cc(C(=O)Nc3cc4[nH]c([C@H]5CCCN5C)c(Cl)c4cn3)ccc12` (stereo partly drawn) [Example 18, N-(3-chloro-2-((R)-1-methylpyrrolidin-2-yl)-1H-pyrrolo[3,2-c]pyridin-6-yl)-1-(8-((2-(2,6-dioxopiperidin-3-yl)-1,3-dioxoisoindolin-4-yl)amino)octyl)-3-methyl-1H-indazole-6-carboxamide], the inhibition at 0.01 µM was ≥ 75%, the inhibition at 0.1 µM was ≥ 75% and the inhibition at 1 µM is ≥ 75%.
In the case of `Cc1nn(CCCCCOCC#Cc2cccc3c2CN(C2CCC(=O)NC2=O)C3=O)c2cc(C(=O)Nc3cc4[nH]c([C@H]5CCCN5C)cc4cn3)ccc12` (stereo partly drawn) [Example 49, 1-(5-((3-(2-(2,6-dioxopiperidin-3-yl)-1-oxoisoindolin-4-yl)prop-2-yn-1-yl)oxy)pentyl)-3-methyl-N-(2-((R)-1-methylpyrrolidin-2-yl)-1H-pyrrolo[3,2-c]pyridin-6-yl)-1H-indazole-6-carboxamide], the inhibition at 0.01 µM was ≥ 75%, the inhibition at 0.1 µM is ≥ 75% and the inhibition at 1 µM was ≥ 75%.
